Entries after “also recorded” stand apart in the source; their conditions may differ.
Columns and labels:
[1] = test system: NALM-6 ALL cells; assay: In vitro radiotracer uptake in NALM-6 cells; format: cell-based; details: for Uptake rate: normalized to [14C]-thymidine, Example 1; for Uptake rate (slope of linear trendline of cell:media ratio): uptake measured at 30, 60, 120 min, FIG. 1 legend
Method: Cell uptake studies were performed in the presence of [^3H]-flouroacetate, [^3H]-glucose, and [^14C]-thymidine. Uptake levels were measure at 30, 60, and 120-minute intervals and expressed as a ratio of cellular retention versus concentration in surrounding media (cell:media ratio). Uptake rates were determined as a function of the slope of linear trendline. [^3H]-flouroacetate uptake rates were higher (dotted line; 0.053 min^−1) compared to glucose (dashed line; 0.028 min-1) and thymidine (solid line; 0.024 min^−1).
In vitro uptake of [^3H]-FA, [^3H]-glucose, and [^14C]-thymidine. Radiotracer uptake studies were performed as described previously (Najjar et al., 2009). Briefly, 10^7 NALM-6 were suspended in 6 mL of RPMI medium containing 10% FBS, [^14C]thymidine (0.01 μCi/mL; Moravek, Brea, Calif., USA) and [^3H]-fluoroacetate (0.1 μCi/mL; Moravek) or [^14C]thymidine (0.01 μCi/mL and [^3H]-glucose (2.5 μCi/mL). At time intervals of 30, 60, and 120 minutes, 1 mL aliquots were removed and the cells were pelleted in pre-weighed vials. A […], aliquot of the supernatant was transferred to a pre-weighed scintillation tube. The pellets were weighed following removal of the remainder of the media and thoroughly resuspended in 0.1 mL of Soluene-350 (Perkin-Elmer, Boston, Mass.). Radioactive beta emissions of the media and cell pellets were measured within pre-calibrated energy ranges using a Packard Tri-Carb 3100TR scintillation counter to quantitate [^3H]-FA, [^3H]-glucose, and [^14C]-thymidine uptake. The activity accumulation ratios of the cell pellets to the media ([disintegrations per minute/g cells]/[disintegrations per minute/g media]) were then determined and plotted.
Accordingly, in vitro radiotracer uptake studies were performed to determine the metabolic preference of NALM-6 cells for uptake and retention of fluoroacetate and glucose. The accumulation [^3H]-fluoroacetate and [^3H]-glucose was measured and compared separate experiments (FIG. 1). Uptake levels were normalized to [^14C]-thymidine levels for direct comparison. […] The rates of [^3H]-glucose and [^14C]-thymidine were more closely matched at 0.028 and 0.024 min^−1, respectively.

[2] = test system: NALM-6 tumor within the central nervous system; assay: Dynamic PET time-activity curve in brain and spinal cord; format: in vivo, mouse; details: 1-hour dynamic PET; NALM-6 tumor-bearing (LMD) vs normal mice
Description: Time-activity curve of [^18F]-fluoroacetate biodistribution within the brain and spinal cord. A dynamic PET scan was used to determine the time-dependent distribution [^18F]-fluoroacetate within regions-of-interest (ROI) in the brains and spinal cords of normal (control) and NALM-6 tumor-bearing (LMD) mice.

Row | SMILES | Uptake rate relative to [3H]-glucose [1] | Uptake rate [1] | Uptake rate (slope of linear trendline of cell:media ratio) [1] | Time-dependent distribution in brain and spinal cord ROI (time-activity curve) [2]
1 | [3H]C(F)C(=O)O (centres unmarked) [[^3H]-fluoroacetate] | nearly twice the rate | 0.056 min⁻¹ | 0.053 min⁻¹ | 
2 | Cc1cn([C@H]2C[C@H](O)[C@@H](CO)O2)c(=O)[nH]c1=O [[^14C]-thymidine] |  | 0.024 min⁻¹ | 0.024 min⁻¹ | 
3 | OC[C@H]1OC(O)[C@H](O)[C@@H](O)[C@@H]1O (some centres unmarked) [[^3H]-glucose] |  | 0.028 min⁻¹ | 0.028 min⁻¹ | 
4 | O=C(O)C[18F] [[^18F]-fluoroacetate, ^18F-fluoroacetate] |  |  |  | preferential accumulation of the radiotracer in regions of NALM-6 tumor within the central nervous system; also recorded: higher baseline levels

Source: US20220387635A1, “PET IMAGING OF CANCEROUS CELLS USING 18F-FLUOROACETATE” (priority 2019, published 2022)
